Experimental data: ChEMBL document CHEMBL1201862, “PubChem BioAssay data set” (2004)
Active and inactive are the calls of the source.

Assays:
[1] = biological target: T1, Tyrosyl-DNA phosphodiesterase 2 (Homo sapiens, UniProt O95551); assay: human TDP2 enzyme inhibitors, dose response, biochemical, epi absorbance, IC50 (AID 743297)
T1 sequence (O95551 whole entry): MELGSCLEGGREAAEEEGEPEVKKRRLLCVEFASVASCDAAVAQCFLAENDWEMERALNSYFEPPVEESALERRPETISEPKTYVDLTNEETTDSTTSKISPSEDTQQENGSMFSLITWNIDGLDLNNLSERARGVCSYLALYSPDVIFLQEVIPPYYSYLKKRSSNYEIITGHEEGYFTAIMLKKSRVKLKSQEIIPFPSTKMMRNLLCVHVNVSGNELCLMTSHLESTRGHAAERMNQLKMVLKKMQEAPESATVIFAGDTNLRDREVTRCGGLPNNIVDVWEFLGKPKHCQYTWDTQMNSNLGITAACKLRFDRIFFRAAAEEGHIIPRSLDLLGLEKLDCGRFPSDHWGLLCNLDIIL

[2] = biological target: NAD-dependent protein deacylase sirtuin-5, mitochondrial (Homo sapiens, UniProt Q9NXA8); assay: SIRT5 desuccinylase inhibitors, dose response, biochemical, fluorescence imaging, cherry-pick, set 5 (AID 720591);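 note: desuccinylation of succinyl peptide AMC substrate read as fluorescence after trypsin release; potency of inhibitors that lower fluorescence and may act on trypsin instead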
NAD-dependent protein deacylase sirtuin-5, mitochondrial, sequence (Q9NXA8 whole entry): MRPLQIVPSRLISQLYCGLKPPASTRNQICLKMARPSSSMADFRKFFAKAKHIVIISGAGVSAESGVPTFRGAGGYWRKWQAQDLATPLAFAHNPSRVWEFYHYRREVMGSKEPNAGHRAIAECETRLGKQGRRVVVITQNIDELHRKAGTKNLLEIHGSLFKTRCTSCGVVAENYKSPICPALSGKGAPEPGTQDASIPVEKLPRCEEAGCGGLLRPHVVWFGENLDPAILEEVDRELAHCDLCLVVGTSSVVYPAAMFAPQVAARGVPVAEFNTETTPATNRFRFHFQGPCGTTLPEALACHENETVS

[3] = Counterscreen for inhibitors of Trypanosoma brucei methionyl tRNA synthetase (MetRS): Luminescence-based cell-based high throughput dose response assay to identify compounds that are cytotoxic to Jurkat human T lymphocyte cells.; format: functional
[4] = biological target: T2, Methionyl-tRNA synthetase, putative (Trypanosoma brucei brucei, UniProt Q38C91); format: functional, Trypanosoma brucei brucei strain 927/4 GUTat10.1;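 note: Read-out by fluorescence polarization, run as a confirmatory high-throughput counterscreen; potency of MetRS inhibitors measured by reduced AMP formation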
T2 sequence (Q38C91 whole entry): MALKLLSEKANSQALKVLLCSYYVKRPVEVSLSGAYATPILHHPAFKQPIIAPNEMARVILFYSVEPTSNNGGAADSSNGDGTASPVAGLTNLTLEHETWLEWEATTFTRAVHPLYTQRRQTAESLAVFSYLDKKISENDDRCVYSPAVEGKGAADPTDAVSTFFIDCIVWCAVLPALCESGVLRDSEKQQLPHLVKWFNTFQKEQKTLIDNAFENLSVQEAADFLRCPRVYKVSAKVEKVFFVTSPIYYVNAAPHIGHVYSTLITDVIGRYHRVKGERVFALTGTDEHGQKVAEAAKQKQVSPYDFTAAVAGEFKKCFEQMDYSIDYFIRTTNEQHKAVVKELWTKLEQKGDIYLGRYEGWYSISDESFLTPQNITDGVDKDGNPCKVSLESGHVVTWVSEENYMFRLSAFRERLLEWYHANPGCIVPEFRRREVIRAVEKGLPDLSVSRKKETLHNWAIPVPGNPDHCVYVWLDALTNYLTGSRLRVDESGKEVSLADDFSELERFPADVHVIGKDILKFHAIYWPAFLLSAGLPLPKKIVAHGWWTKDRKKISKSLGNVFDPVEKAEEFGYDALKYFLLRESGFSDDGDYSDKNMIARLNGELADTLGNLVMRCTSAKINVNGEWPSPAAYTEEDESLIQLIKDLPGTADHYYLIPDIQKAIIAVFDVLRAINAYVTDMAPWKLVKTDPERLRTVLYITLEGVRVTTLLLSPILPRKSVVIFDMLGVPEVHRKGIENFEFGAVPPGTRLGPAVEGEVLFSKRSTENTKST

[5] = biological target: T3, Long-chain-fatty-acid--AMP ligase FadD28 (Mycobacterium tuberculosis, UniProt P9WQ59); assay: Fluorescence polarization aasay to screen for inhibitors that compete for the binding of FadD28 to a bisubstrate Measured in Biochemical System Using Plate Reader - 2147-01_Inhibitor_Dose_CherryPick_Activity.; format: functional, Mycobacterium tuberculosis H37Rv
T3 sequence (P9WQ59 whole entry): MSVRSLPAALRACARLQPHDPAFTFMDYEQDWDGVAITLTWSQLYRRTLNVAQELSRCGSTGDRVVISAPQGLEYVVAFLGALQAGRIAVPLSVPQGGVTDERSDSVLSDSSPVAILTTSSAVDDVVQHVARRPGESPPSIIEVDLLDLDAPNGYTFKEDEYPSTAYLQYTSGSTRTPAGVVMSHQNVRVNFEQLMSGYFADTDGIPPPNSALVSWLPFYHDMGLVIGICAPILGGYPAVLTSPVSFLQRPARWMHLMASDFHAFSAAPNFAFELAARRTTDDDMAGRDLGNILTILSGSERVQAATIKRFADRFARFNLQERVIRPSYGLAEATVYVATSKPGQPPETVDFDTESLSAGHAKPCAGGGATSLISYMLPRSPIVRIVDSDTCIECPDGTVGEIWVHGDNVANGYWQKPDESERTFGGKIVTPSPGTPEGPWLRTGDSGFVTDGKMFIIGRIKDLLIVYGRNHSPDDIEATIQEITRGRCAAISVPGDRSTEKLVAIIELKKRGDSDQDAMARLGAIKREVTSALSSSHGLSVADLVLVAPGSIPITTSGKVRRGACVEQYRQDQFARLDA

[6] = biological target: T4, Trace amine-associated receptor 1 (Homo sapiens, UniProt Q96RJ0); assay: Counterscreen for agonists of the human trace amine associated receptor 1 (hTAAR1): Fluorescence-based cell-based high throughput dose response assay to identify hTAAR1 agonist that also desensitize TAAR1 receptor response.; format: functional
T4 sequence (Q96RJ0 whole entry): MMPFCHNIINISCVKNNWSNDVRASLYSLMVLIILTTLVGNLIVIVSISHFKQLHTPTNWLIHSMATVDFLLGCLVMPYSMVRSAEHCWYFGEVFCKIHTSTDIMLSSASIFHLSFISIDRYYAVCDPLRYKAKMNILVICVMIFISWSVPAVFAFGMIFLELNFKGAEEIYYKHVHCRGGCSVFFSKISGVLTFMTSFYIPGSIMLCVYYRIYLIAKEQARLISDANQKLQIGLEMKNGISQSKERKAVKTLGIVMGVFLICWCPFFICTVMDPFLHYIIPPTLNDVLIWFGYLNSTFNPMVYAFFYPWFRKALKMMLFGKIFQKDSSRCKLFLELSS

cells [7] = format: functional, cell-based
cells [8] = format: functional, cell-based; remark: listed apart in the source
[9] = biological target: T4, Trace amine-associated receptor 1; assay: Fluorescence-based cell-based high throughput dose response assay to identify agonists of the human trace amine associated receptor 1 (TAAR1).; format: functional
Kallikrein-7 = Kallikrein-7 (Homo sapiens, UniProt P49862); assay: Fluorescence Intensity-based biochemical primary high throughput dose response assay to identify activators of kallikrein-7 (K7) zymogen.
Kallikrein-7, sequence (P49862 whole entry, the tested form may be a part): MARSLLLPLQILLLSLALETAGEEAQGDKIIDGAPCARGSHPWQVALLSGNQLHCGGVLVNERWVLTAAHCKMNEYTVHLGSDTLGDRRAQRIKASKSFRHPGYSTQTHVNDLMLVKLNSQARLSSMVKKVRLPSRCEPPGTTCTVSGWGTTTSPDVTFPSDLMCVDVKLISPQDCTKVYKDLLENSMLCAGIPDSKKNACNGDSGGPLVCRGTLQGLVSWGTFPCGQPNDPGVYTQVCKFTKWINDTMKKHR

[10] = biological target: T5, Sentrin-specific protease 1 (Homo sapiens, UniProt Q9P0U3); assay: Dose response confirmation of small molecule inhibitors of the catalytic domain of the SUMO protease, SENP1 in a FRET assay.; format: functional; details: read-out: IC50_Mean
T5 sequence (Q9P0U3 whole entry): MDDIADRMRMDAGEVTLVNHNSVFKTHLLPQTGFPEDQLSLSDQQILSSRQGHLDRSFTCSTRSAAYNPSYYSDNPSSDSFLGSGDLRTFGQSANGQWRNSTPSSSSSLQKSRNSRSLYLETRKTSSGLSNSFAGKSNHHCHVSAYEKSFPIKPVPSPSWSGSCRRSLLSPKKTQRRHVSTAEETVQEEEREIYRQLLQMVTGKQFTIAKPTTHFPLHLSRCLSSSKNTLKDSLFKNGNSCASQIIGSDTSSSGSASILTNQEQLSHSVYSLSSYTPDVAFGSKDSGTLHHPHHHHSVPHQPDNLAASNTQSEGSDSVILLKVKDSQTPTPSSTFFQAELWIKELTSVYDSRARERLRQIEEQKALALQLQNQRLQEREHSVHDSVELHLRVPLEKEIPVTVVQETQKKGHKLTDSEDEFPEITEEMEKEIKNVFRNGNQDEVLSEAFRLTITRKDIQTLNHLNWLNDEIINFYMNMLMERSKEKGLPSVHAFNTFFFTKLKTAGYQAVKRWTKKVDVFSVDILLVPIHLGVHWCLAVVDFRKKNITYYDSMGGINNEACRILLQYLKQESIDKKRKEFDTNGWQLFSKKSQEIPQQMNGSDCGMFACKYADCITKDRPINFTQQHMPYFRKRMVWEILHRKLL

[11] = biological target: FAD-linked sulfhydryl oxidase ALR (Homo sapiens, UniProt P55789); assay: inhibitors of human ALR sulfhydryl oxidase, dose response, biochemical, H2O2 detection, luminescence, cherry-pick (AID 493248)
FAD-linked sulfhydryl oxidase ALR, sequence (P55789 whole entry): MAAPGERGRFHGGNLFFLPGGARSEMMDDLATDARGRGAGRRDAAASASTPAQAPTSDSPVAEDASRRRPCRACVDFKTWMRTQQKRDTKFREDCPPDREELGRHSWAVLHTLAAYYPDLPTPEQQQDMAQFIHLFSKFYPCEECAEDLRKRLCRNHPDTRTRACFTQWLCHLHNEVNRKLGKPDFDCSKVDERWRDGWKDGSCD

[12] = biological target: T5, Sentrin-specific protease 1; assay: potency of human SENP1 inhibitors, dose response, biochemical, kinetic FRET (AID 651697); format: functional; details: read-out: IC50_Mean
Aurora kinase B = Aurora kinase B (Homo sapiens, UniProt Q96GD4); format: functional
Aurora kinase B, sequence (Q96GD4 whole entry): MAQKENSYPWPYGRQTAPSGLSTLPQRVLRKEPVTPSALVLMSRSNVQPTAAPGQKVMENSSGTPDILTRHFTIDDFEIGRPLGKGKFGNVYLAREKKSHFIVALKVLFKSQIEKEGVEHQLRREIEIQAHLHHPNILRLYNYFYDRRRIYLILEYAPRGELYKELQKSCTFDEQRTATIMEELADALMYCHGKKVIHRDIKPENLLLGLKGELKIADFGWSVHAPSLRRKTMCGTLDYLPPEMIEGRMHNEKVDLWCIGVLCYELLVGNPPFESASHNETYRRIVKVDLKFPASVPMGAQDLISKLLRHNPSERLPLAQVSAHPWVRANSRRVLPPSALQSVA

Aurora kinase A = biological target: T6, Aurora kinase A (Homo sapiens, UniProt O14965); format: functional;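 note: value from the Navigating the Kinome kinase panel profiling, panel entry STK6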
T6 sequence (O14965 whole entry): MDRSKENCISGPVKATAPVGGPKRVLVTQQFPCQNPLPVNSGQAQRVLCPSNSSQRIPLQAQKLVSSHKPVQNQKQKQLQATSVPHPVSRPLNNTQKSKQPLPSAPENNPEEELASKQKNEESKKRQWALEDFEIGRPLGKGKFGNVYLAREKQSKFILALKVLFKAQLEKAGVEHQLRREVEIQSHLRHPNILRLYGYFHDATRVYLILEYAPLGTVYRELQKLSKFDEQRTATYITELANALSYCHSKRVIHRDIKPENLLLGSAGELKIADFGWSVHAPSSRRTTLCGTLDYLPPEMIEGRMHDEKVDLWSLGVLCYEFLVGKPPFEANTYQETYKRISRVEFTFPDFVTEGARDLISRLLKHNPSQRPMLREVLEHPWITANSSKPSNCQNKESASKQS

[13] = intracellular Trypanosoma cruzi inhibitors in host cells – cell-based, plate reader, cherry-pick samples, set 3, dose response (AID 651818); format: functional;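 note: compounds incubated with infected cells for about four days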
[14] = miR-122 activators in hepatoma reporter cells, dose response, cell-based, Huh7 psiCHECK-miR122, Renilla luciferase, cherry-picked (AID 651956); format: functional;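 note: huh7 hepatoma cells stably carrying a psiCHECK-2 miR-122 sensor plasmid; renilla luciferase signal reporting endogenous miR-122 activity after 48 h compound exposure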
[15] = cytotoxicity in OVCAR8 ovarian cancer cells, dose response, PAX8 project, cell-based, plate reader, dry powder samples (AID 743197); format: functional; details: OVCAR-8
[16] = NIH:OVCAR-3 ovarian cancer cell cytotoxicity, dose response, PAX8 inhibitor project, plate reader, dry powder samples (AID 743044); format: functional, cell-based
Paired box protein Pax-8 = Paired box protein Pax-8 (Homo sapiens, UniProt Q06710); assay: inhibitors of PAX8-driven TPO luciferase reporter, dose response, RMG-I cells, cherry-pick (AID 687027); format: functional, cell-based;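 note: luciferase reporter driven by Pax8 target thyroperoxidase promoter measured by SteadyGlo luminescence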
Paired box protein Pax-8, sequence (Q06710 whole entry): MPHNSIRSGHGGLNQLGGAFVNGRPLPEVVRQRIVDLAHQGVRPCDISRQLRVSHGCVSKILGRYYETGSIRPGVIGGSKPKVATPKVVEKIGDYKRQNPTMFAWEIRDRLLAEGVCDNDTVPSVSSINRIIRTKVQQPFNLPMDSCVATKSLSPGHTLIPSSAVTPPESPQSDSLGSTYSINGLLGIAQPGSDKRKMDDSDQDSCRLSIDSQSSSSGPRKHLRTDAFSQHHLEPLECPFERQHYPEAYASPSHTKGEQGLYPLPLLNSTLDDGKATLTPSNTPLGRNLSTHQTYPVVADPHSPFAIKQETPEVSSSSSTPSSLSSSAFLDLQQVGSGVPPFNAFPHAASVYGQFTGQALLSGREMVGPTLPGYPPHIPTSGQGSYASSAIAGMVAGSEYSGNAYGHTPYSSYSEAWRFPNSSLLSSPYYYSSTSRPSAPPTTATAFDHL

[17] = non-specific cell cytotoxicity, dose response, cytotoxicity control for PAX8 inhibitor project, plate reader, dry powder samples (AID 743021); format: functional, cell-based

CCCCn1c(NC(=O)c2ccc(Br)o2)c(C(=O)OCC)c2nc3ccccc3nc21
IC50 [1]: > 128 µM (inactive)

CCC1CN(C(=O)N2CCC(C(=O)Nc3ccccc3F)CC2)c2ccccc2O1 (stereo unspecified)
AC50 [2]: > 30 µM (inactive)

O=C(CSc1ccc(-c2nc3ccccc3[nH]2)cn1)Nc1ccc(S(=O)(=O)N2CCCC2)cc1
IC50 [3]: 83.3 µM (inactive) | IC50 [4]: 8.73 µM (active) | AC50 [5]: > 100 µM (inactive)

c1ccc2c(c1)CC1CNCc3cccc(c31)S2 (stereo unspecified)
IC50 [6]: 7.1 µM (active) | EC50 (cells [7]): > 29.9 µM (inactive) | IC50 (cells [8]): > 29.9 µM (inactive) | EC50 [9]: 5.87 µM (active)

O=C(Nc1ccc2[nH]c(O)nc2c1)c1c(F)c(F)c(F)c(F)c1F
EC50 (Kallikrein-7): 22.9 µM (inactive)

Cc1c(C)c2c(OCC(=O)N[C@@H](CC(C)C)C(=O)O)cc3c(c2oc1=O)CCC(C)(C)O3
EC50 (Kallikrein-7): > 69.5 µM (inactive)

COc1cc(/C=C2/SC(=S)N(CC(=O)O)C2=O)ccc1OC(=O)c1ccco1
IC50 [10]: 5.86 µM (active) | AC50 [11]: 3.74 µM (active) | IC50 [12]: 4.75 µM (active)

Cc1ccc(NC(=O)CNc2ccccc2N2CCCC2=O)cc1S(=O)(=O)N1CCOCC1
AC50 [5]: 21.8 µM (active)

COCCOC1CCC(n2nc(-c3ccc(Nc4nc5cc(Cl)ccc5o4)c(F)c3)c3c(N)ncnc32)CC1 (stereo unspecified)
Ki (Aurora kinase B): 0.01 µM (active) | Ki (Aurora kinase A): 0.0398 µM (active)

C[C@H](O)[C@@H]1C(=O)N2CCc3c([nH]c4ccccc34)[C@@H]2C[C@@H]1N(C)C(=O)NC1CCCCC1
EC50 (Kallikrein-7): 8.4 µM (active)

C[C@@H]1CCCCO[C@@H](CN(C)Cc2ccc(Cl)c(Cl)c2)[C@@H](C)CN([C@H](C)CO)C(=O)c2cc(NC(=O)c3ccccc3)ccc2O1
AC50 [13]: 6.25 µM (active)

C[C@H]1CN([C@@H](C)CO)C(=O)Cc2cc(N(C)C)ccc2O[C@@H]1CN(C)Cc1ccc(C(=O)Nc2ccccc2N)cc1
AC50 [13]: 0.794 µM (active)

CCCCCn1nnnc1-c1nc2cc3ccccc3cc2nc1O
IC50 [10]: 1.29 µM (active) | IC50 [12]: 4.94 µM (active)

C[C@H]1CN([C@@H](C)CO)C(=O)c2cc(-c3ccc(C#N)cc3)cnc2O[C@H]1CN(C)C(=O)Nc1ccc(C(F)(F)F)cc1
AC50 [14]: 7.44 µM (active)

C[C@@H]1CN([C@@H](C)CO)C(=O)Cc2cc(NS(=O)(=O)c3ccccc3)ccc2O[C@@H]1CN(C)S(=O)(=O)c1ccc(Cl)cc1
AC50 [13]: 6.08 µM (active)

C[C@@H]1CN([C@@H](C)CO)C(=O)Cc2cc(NC(=O)CCCCCC(=O)Nc3ccccc3N)ccc2O[C@@H]1CN(C)Cc1ccc(C(F)(F)F)cc1
AC50 [15]: 18 µM (active) | AC50 [16]: 30.1 µM (active) | AC50 (Paired box protein Pax-8): 6.87 µM (active) | AC50 [17]: 45.4 µM (active)

CC/C(=N\CCc1ccccc1)C1=C(O)CCC1=O
IC50 [6]: 2.34 µM (active) | EC50 (cells [7]): > 29.9 µM (inactive) | IC50 (cells [8]): > 29.9 µM (inactive) | EC50 [9]: 0.351 µM (active)

COc1ccc(CCNC(=O)/C=C/C(=O)O)cc1
IC50 [6]: > 29.9 µM (inactive) | EC50 (cells [7]): > 29.9 µM (inactive) | IC50 (cells [8]): > 29.9 µM (inactive) | EC50 [9]: 10.4 µM (inactive)
